# Reference: patent US20050239813A1, “Pharmaceutical compositions comprising fk506 derivatives and their use for the treatment of allergic diseases” (Sucampo Pharmaceuticals Inc., priority 2002, published 2005)
# System: Human patients with a history of allergy
# Test: Allergen challenge of human patients after FK506 eye drops; ocular itching score
# Assay type: in vivo
# Procedure: Human patients with a history of allergy were divided into 5 groups and treated in one eye with eye drop (placebo, 0.01% FK506, 0.03% FK506, 0.06% FK506 or 0.1% FK506), and the other eye with placebo. Each eye drop was administered 4 times per day for seven days and 16 hours after the final instillation, patients were administered allergen-containing eye drops at a concentration predetermined to cause a reaction in the patient. The one hundred patients having a baseline itching score of at lease 3, on a scale of 0 to 4, with 4 being most severe, were evaluated.
compound,measurement,setting,value
"C=CC[C@@H]1/C=C(\C)C[C@H](C)C[C@H](OC)[C@H]2O[C@@](O)(C(=O)C(=O)N3CCCC[C@H]3C(=O)O[C@H](/C(C)=C/[C@@H]3CC[C@@H](O)[C@H](OC)C3)[C@H](C)[C@@H](O)CC1=O)[C@H](C)C[C@@H]2OC [FK506, 17-allyl-1,14-dihydroxy-12-[2-(4-hydroxy-3-methoxycyclohexyl)-1-methylvinyl]-23,25-dimethoxy-13,19,21,27-tetramethyl-11,28-dioxa-4-azatricyclo[22.3.1.0^4,9]octacos-18-ene-2,3,10,16-tetraone]",decrease from baseline itching score versus placebo,"3 minutes post challenge, all concentrations (0.01%, 0.03%, 0.06%, 0.1% eye drops), 4 times per day for seven days, challenge 16 hours after final instillation",statistically significant versus placebo
same,decrease from baseline itching score: dose response,"eye drops 0.01%, 0.03%, 0.06% or 0.1% FK506, 4 times per day for seven days, allergen challenge 16 hours after final instillation, itching scale 0 to 4, FIG. 1",pronounced dose response
